Test results taken from PubChem BioAssay (NCI).
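Growth conditions: 96-well plates. Treatment: test compound, 48 hours, 5 concentrations. Analysis: linear interpolation between bracketing concentrations; unreached endpoints set to highest concentration. Definition used: TGI = concentration required for complete inhibition of growth.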

Legend:
Assay in all cases: inhibition of tumour cell growth, NCI panel, 48 h
UACC-62 melanoma = system: UACC-62 melanoma
DLD-1 colon = system: DLD-1 colon
SN12C renal = system: SN12C renal
NCI-H460 lung = system: NCI-H460 lung
KM20L2 colon = system: KM20L2 colon
KM12 colon = system: KM12 colon
UACC-257 melanoma = system: UACC-257 melanoma
NCI-H226 lung = system: NCI-H226 lung
LOX IMVI melanoma = system: LOX IMVI melanoma
TK-10 renal = system: TK-10 renal
SNB-19 CNS = system: SNB-19 CNS
NCI-H522 lung = system: NCI-H522 lung
MOLT-4 leukemia = system: MOLT-4 leukemia
COLO 205 colon = system: COLO 205 colon
SK-MEL-28 melanoma = system: SK-MEL-28 melanoma
HOP-62 NSCLC = system: HOP-62 NSCLC
HOP-18 NSCLC = system: HOP-18 NSCLC
RXF 393 renal = system: RXF 393 renal
OVCAR-5 ovarian = system: OVCAR-5 ovarian
CCRF-CEM leukemia = system: CCRF-CEM leukemia
NCI-H23 lung = system: NCI-H23 lung
LXFL 529 NSCLC = system: LXFL 529 NSCLC
K-562 leukemia = system: K-562 leukemia
U251 CNS = system: U251 CNS
OVCAR-8 ovarian = system: OVCAR-8 ovarian
SF-295 CNS = system: SF-295 CNS
DMS 114 small cell lung = system: DMS 114 small cell lung
A549 NSCLC = system: A549 NSCLC
A498 renal = system: A498 renal
HCT-116 colon = system: HCT-116 colon
SR leukemia = system: SR leukemia
CAKI-1 renal = system: CAKI-1 renal
HCC-2998 colon = system: HCC-2998 colon
HOP-92 NSCLC = system: HOP-92 NSCLC
DMS 273 small cell lung = system: DMS 273 small cell lung
SW-620 colon = system: SW-620 colon
786-0 renal = system: 786-0 renal
SF-539 CNS = system: SF-539 CNS
MALME-3M melanoma = system: MALME-3M melanoma
SNB-75 CNS = system: SNB-75 CNS
ACHN renal = system: ACHN renal
M14 melanoma = system: M14 melanoma
HT29 colon = system: HT29 colon
SK-OV-3 ovarian = system: SK-OV-3 ovarian
SK-MEL-5 melanoma = system: SK-MEL-5 melanoma
IGROV1 ovarian = system: IGROV1 ovarian
M19-MEL melanoma = system: M19-MEL melanoma
OVCAR-4 ovarian = system: OVCAR-4 ovarian
HL-60(TB) leukemia = system: HL-60(TB) leukemia
HCT-15 colon = system: HCT-15 colon
SK-MEL-2 melanoma = system: SK-MEL-2 melanoma
SF-268 CNS = system: SF-268 CNS
EKVX NSCLC = system: EKVX NSCLC
OVCAR-3 ovarian = system: OVCAR-3 ovarian
UO-31 renal = system: UO-31 renal
SNB-78 CNS = system: SNB-78 CNS
RPMI-8226 leukemia = system: RPMI-8226 leukemia

Measured: TGI

NC(N)=N/N=C/c1oc(-c2ccc(S(=O)(=O)O)o2)c(-c2ccc(S(=O)(=O)O)o2)c1[N+](=O)[O-]
not listed: SNB-78 CNS | RPMI-8226 leukemia
> 100 µM: all other assays above

O=C1/C(=N\O)C2CCC1C2 (configuration not stated)
not listed: DLD-1 colon | SR leukemia
> 100 µM: all other assays above

Clc1ccc(OCCSCCCCCCCCCCSCCOc2ccc(Cl)cc2)cc1
not listed: LXFL 529 NSCLC | HCT-116 colon | SR leukemia | M14 melanoma | OVCAR-4 ovarian
> 100 µM: all other assays above
